Experimental data reported in patent US20070142389A1, “PIPERIDINE DERIVATIVES” (PFIZER INC., priority 2005, published 2007).

Legend:
[1] = target: T1, human norepinephrine transporter (Homo sapiens, UniProt P23975); test: hNET Receptor Binding ([125I]-RTI-55 displacement, HEK-293 membranes); conditions: hNET, HEK-293 cell membranes, 50 pM [125I]-RTI-55, Ki from IC50 by Cheng-Prusoff; read-out: NET Ki
T1 construct: expressed in transfected cells; host or cells: HEK-293
Method: (§1) Cell pastes of HEK-293 cells transfected with a human norepinephrine transporter cDNA were prepared. The cell pastes were resuspended in 400 to 700 mL of Krebs-HEPES assay buffer (25 mM HEPES, 122 mM NaCl, 3 mM KCl, 1.2 mM MgSO4, 1.3 mM CaCl2, and 11 mM glucose, pH 7.4) with a Polytron homogenizer at setting 7 for 30 seconds. Aliquots of membranes (5 mg/mL protein) were stored in liquid nitrogen until used.
The binding assay was set up in Beckman deep-well polypropylene plates with a total volume of 250 μL containing: compound of one of the Examples (10^−5M to 10^−12M), cell membranes, and 50 pM [^125I]-RTI-55 (Perkin Elmer, NEX-272; specific activity 2200 Ci/mmol). The reaction was incubated by gentle agitation for 90 minutes at room temperature and was terminated by filtration through Whatman GF/C filter plates using a Brandel 96-well plate harvester. Scintillation fluid (100 μL) was added to each well, and bound [^125I]-RTI-55 was determined using a Wallac Trilux Beta Plate Counter. Test compounds were run in duplicate, and specific binding was defined as the difference between binding in the presence and absence of 10 μM desipramine.
(§2) Excel and GraphPad Prism software were used for data calculation and analysis. IC50 values were converted to Ki values using the Cheng-Prusoff equation.

[2] = target: T2, human serotonin transporter (Homo sapiens, UniProt P31645); test: hSERT Receptor Binding ([125I]-RTI-55 displacement, HEK-293 membranes); conditions: hSERT, HEK-293 cell membranes, 50 pM [125I]-RTI-55, Ki from IC50 by Cheng-Prusoff; read-out: SERT Ki
T2 construct: expressed in transfected cells; host or cells: HEK-293
T2 sequence (P31645 whole entry): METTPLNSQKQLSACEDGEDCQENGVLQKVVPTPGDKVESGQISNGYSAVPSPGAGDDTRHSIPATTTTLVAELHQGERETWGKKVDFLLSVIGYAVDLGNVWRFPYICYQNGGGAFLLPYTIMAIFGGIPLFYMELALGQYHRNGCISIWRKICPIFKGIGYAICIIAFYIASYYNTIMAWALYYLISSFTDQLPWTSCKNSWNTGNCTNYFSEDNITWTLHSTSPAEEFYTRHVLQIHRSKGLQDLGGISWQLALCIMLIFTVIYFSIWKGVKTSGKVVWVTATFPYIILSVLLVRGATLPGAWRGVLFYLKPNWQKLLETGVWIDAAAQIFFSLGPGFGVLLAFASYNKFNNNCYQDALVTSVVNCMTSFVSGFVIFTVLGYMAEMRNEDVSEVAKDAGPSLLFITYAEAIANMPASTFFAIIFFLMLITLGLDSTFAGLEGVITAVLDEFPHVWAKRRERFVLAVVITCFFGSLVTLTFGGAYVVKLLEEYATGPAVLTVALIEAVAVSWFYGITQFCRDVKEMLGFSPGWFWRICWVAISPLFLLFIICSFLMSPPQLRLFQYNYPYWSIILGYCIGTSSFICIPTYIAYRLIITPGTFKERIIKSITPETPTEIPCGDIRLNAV
Method: as §1, with “serotonin” for “norepinephrine”, “Setting” for “setting”, “(about 2.5” for “(5”
Assays were set up in FlashPlates pre-coated with 0.1 % PEI in a total volume of 250 μL containing: compound of one of the Examples (10^−5M to 10^−12M), cell membanes, and 50 pM [^125l]-RTI-55 (Perkin Elmer, NEX-272; specific activity 2200 Ci/mmol). The reaction was incubated and gently agitated for 90 minutes at room temperature, and terminated by removal of assay volume. Plates were covered, and bound [^125I]-RTI-55 was determined using a Wallac Trilux Beta Plate Counter. Test compounds were run in duplicate, and specific binding was defined as the difference between binding in the presence and absence of 10 μM citalopram.
as §2

T1 sequence (P23975 whole entry): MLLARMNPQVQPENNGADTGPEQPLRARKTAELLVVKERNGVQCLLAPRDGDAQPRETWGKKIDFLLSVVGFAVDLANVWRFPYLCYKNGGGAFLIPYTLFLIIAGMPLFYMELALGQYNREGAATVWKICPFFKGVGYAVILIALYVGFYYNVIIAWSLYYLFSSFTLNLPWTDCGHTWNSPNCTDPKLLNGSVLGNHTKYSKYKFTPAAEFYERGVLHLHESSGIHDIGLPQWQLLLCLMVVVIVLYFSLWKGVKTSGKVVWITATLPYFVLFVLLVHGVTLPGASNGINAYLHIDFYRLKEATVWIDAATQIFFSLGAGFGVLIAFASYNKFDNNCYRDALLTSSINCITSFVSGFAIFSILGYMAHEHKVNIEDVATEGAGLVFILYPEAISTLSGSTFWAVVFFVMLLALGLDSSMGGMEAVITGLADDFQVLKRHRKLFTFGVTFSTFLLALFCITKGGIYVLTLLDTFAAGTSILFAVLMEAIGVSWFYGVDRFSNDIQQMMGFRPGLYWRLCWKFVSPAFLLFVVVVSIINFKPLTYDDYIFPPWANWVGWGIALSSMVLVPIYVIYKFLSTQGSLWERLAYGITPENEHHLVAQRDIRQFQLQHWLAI

Ki [1] | Ki [2] | Compound
1870 nM | 15.3 nM | FC(F)(F)c1ccc(OC[C@H]2CNCC[C@@H]2c2ccccc2)nc1 [Example 4, (3R,4S)-2-(4-Phenyl-piperidin-3-ylmethoxy)-5-trifluoromethyl-pyridine]
2620 nM | 2.29 nM | Cc1ccc(OC[C@H]2CNCC[C@@H]2c2ccccc2)nc1 [Example 5, (3R,4S)-5-Methyl-2-(4-phenyl-piperidin-3-ylmethoxy)-pyridine]
3480 nM | 0.52 nM | COc1ncccc1OC[C@H]1CNCC[C@@H]1c1ccccc1 [Example 6, (3R,4S)-2-Methoxy-3-(4-phenyl-piperidin-3-ylmethoxy)-pyridine]
1330 nM | 17 nM | CCCOc1ncccc1OC[C@H]1CNCC[C@@H]1c1ccccc1 [Example 8, (3R,4S)-3-(4-Phenyl-piperidin-3-ylmethoxy)-2-propoxy-pyridine]
6260 nM | 18.5 nM | COCCOc1ncccc1OC[C@H]1CNCC[C@@H]1c1ccccc1 [Example 10, (3R,4S)-2-(2-Methoxy-ethoxy)-3-(4-phenyl-piperidin-3-ylmethoxy)-pyridine]
612 nM | 2.69 nM | Cn1nc(OC[C@H]2CNCC[C@@H]2c2ccccc2)cc1C(F)(F)F [Example 13, (3R,4S)-3-(1-Methyl-5-trifluoromethyl-1 H-pyrazol-3-yloxymethyl)-4-phenyl-piperidine]
293 nM | 680 nM | c1ccc([C@@H]2CCNC[C@H]2COc2cccnc2OC2CCOCC2)cc1 [Example 16, (3S,4R)-3-(4-Phenyl-piperidin-3-ylmethoxy)-2-(tetrahydro-pyran-4-yloxy)-pyridine]
144 nM | 29.1 nM | FC(F)(F)c1ccc(OC[C@@H]2CNCC[C@H]2c2ccccc2)nc1 [Example 19, (3S,4R)-2-(4-Phenyl-piperidin-3-ylmethoxy)-5-trifluoromethyl-pyridine]
157 nM | 3.14 nM | Cc1ccc(OC[C@@H]2CNCC[C@H]2c2ccccc2)nc1 [Example 20, (3S,4R)-5-Methyl-2-(4-phenyl-piperidin-3-ylmethoxy)-pyridine]
1260 nM | 63.8 nM | Cn1nc(C(F)(F)F)cc1OC[C@@H]1CNCC[C@H]1c1ccccc1 [Example 21, (3S,4R)-3-(2-Methyl-5-trifluoromethyl-2H-pyrazol-3-yloxymethyl)-4-phenyl-piperidine]
263 nM | 3.47 nM | Cc1ccc(OC[C@@H]2CNCC[C@H]2c2ccccc2)cn1 [Example 22, (3S,4R)-2-Methyl-5-(4-phenyl-piperidin-3-ylmethoxy)-pyridine]
1520 nM | 1390 nM | COCc1cc(OC[C@@H]2CNCC[C@H]2c2ccccc2)[nH]n1 [Example 23, (3S,4R)-3-(5-Methoxymethyl-2H-pyrazol-3-yloxymethyl)-4-phenyl-piperidine]
519 nM | 87.7 nM | Cn1nc(OC[C@@H]2CNCC[C@H]2c2ccccc2)cc1C(F)(F)F [Example 24, (3S,4R)-3-(1-Methyl-5-trifluoromethyl-1 H-pyrazol-3-yloxymethyl)-4-phenyl-piperidine]
107 nM | 2.49 nM | N#Cc1cccc(OC[C@@H]2CNCC[C@H]2c2ccccc2)c1 [Example 25, (3S,4R)-3-(4-Phenyl-piperidin-3-ylmethoxy)-benzonitrile]
73.3 nM | 21.5 nM | N#Cc1ccc(OC[C@@H]2CNCC[C@H]2c2ccccc2)cc1 [Example 26, (3S,4R)-4-(4-Phenyl-piperidin-3-ylmethoxy)-benzonitrile]
≥ 10000 nM | 5230 nM | CC(C)c1cc(C(N)=O)cc(C(C)C)c1OC[C@@H]1CNCC[C@H]1c1ccccc1 [Example 27, (3S,4R)-3,5-Diisopropyl-4-(4-phenyl-piperidin-3-ylmethoxy)-benzamide]
6380 nM | 2130 nM | Cc1nccnc1OC[C@@H]1CNCC[C@H]1c1ccccc1 [Example 28, (3S,4R)-2-Methyl-3-(4-phenyl-piperidin-3-ylmethoxy)-pyrazine]
309 nM | 967 nM | CNC(=O)c1ccc(OC[C@@H]2CNCC[C@H]2c2ccccc2)cc1 [Example 29, (3S,4R)-N-Methyl-4-(4-phenyl-piperidin-3-ylmethoxy)-benzamide]
534 nM | 333 nM | CNC(=O)c1ccc(OC[C@@H]2CNCC[C@H]2c2ccccc2)c(OC)c1 [Example 30, (3S,4R)-3-Methoxy-N-methyl-4-(4-phenyl-piperidin-3-ylmethoxy)-benzamide]
102 nM | 890 nM | COCc1ncccc1OC[C@@H]1CNCC[C@H]1c1ccccc1 [Example 31, (3S,4R)-2-Methoxymethyl-3-(4-phenyl-piperidin-3-ylmethoxy)-pyridine]
2940 nM | 861 nM | CN(C)C(=O)c1ccc(OC[C@@H]2CNCC[C@H]2c2ccccc2)cc1 [Example 32, (3S,4R)-N,N-Dimethyl-4-(4-phenyl-piperidin-3-ylmethoxy)-benzamide]
8.6 nM | 18.1 nM | NC(=O)c1ccc(OC[C@@H]2CNCC[C@H]2c2ccccc2)c(Cl)c1 [Example 33, (3S,4R)-3—CHloro-4-(4-phenyl-piperidin-3-ylmethoxy)-benzamide]
1440 nM | 3500 nM | Cc1cc(C(N)=O)cc(C)c1OC[C@@H]1CNCC[C@H]1c1ccccc1 [Example 34, (3S,4R)-3,5-Dimethyl-4-(4-phenyl-piperidin-3-ylmethoxy)-benzamide]
101 nM | 13.7 nM | COc1cc(C#N)ccc1OC[C@@H]1CNCC[C@H]1c1ccccc1 [Example 36, (3S,4R) 3-Methoxy-4-(4-phenyl-piperidin-3-ylmethoxy)-benzonitrile]
1030 nM | 431 nM | NC(=O)c1cc(Cl)ccc1OC[C@@H]1CNCC[C@H]1c1ccccc1 [Example 37, (3S,4R)-5—CHloro-2-(4-phenyl-piperidin-3-ylmethoxy)-benzamide]
146 nM | 732 nM | NC(=O)c1ncccc1OC[C@@H]1CNCC[C@H]1c1ccccc1 [Example 39, (3S,4R)-3-(4-Phenyl-piperidin-3-ylmethoxy)-pyridine-2-carboxylic acid amide]
751 nM | 5680 nM | CS(=O)(=O)c1ccccc1OC[C@@H]1CNCC[C@H]1c1ccccc1 [Example 40, (−)-(3S,4R)-3-(2-Methanesulfonyl-phenoxymethyl)-4-phenyl-piperidine]
3.88 nM | 2.67 nM | COc1cccc(F)c1OC[C@@H]1CNCC[C@H]1c1ccccc1 [Example 41, (3S,4R)-3-(2-Fluoro-6-methoxy-phenoxymethyl)-4-phenyl-piperidine]
1.7 nM | 626 nM | N#Cc1ccccc1OC[C@@H]1CNCC[C@H]1c1ccccc1 [Example 42, (3S, 4R)-2-(4-Phenyl-piperidin-3-ylmethoxy)-benzonitrile]
14.4 nM | 89.7 nM | CCOc1cccnc1OC[C@@H]1CNCC[C@H]1c1ccccc1 [Example 43, (3S,4R)-3-Ethoxy-2-(4-phenyl-piperidin-3-ylmethoxy)-pyridine]

Compound | Ki [1] | Ki [2]
CC(C)COc1ncccc1OC[C@@H]1CNCC[C@H]1c1ccccc1 [Example 15, (3S,4R)-2-lsobutoxy-3-(4-phenyl-piperidin-3-ylmethoxy)-pyridine] | 4.9 nM | 20.7 nM
